Columns and labels:
Format in all cases: biochemical
MMP-14 (MT1-MMP) = target: T1, MMP-14 (MT1-MMP) (Homo sapiens, UniProt P50281); test: Test 5 MMP-14 (MT1-MMP) inhibiting activity test; details: human recombinant MT1-MMP, 37° C.; read-out: MMP-14 inhibition activity value
T1 construct: purchased Biogenesis, supplied by Cosmobio (Nakarai Tesku)
Description: Test 5 MMP-14 (MTI-MMP) Inhibiting Activity Test
Human recombinant MTI-MMP used the product prepared by Biogenesis and supplied by Cosmobio (Nakarai Tesku).
An assay buffer solution (70 μl, pH 7.5 solution containing 0.1M Tris-HCl solution, 0.1M calcium chloride solution, 10 mM sodium chloride solution and 0.05% Brij-35 solution), 0.1 w/w % a compound in DMSO (10 μl), MMP substrate solution (MOCAc-Pro-Leu-Gly-Leu-A2pr(DNP)-Ala-Arg-NH2 (Peptide Lab.) diluted with the assay buffer solution (50 μM, 10 μl)) and human recombinant MT1-MMP (0.4 pg/10 μl/well) were well agitated under stirring. The enzyme activity of the mixture was measured based on fluorescence intensity (λex 320 nm/λem 405 nm) by a fluorescence reader. After the mixture was incubated at 37° C. for 0.5 hour, the fluorescence intensity (λex 320 nm/λem 405 nm) was measured every hour, and IC50 was calculated.
The inhibition value was calculated by withdrawing average value of blank well from fluorescence mean value of well in which MT1-MMP was added. As the blank was used the mixed solution prepared by adding assay buffer (10 μl) instead of MT1-MMP solution.

MMP-3 = target: T2, MMP-3 (Homo sapiens, UniProt P08254); test: Test 1 Test on MMP-3 inhibiting activity (fluorogenic peptide substrate); details: activated MMP-3, 37° C.; read-out: MMP-3 inhibition activity value
T2 construct: C-terminal truncated cDNA in which the cDNA encodes human prostromelysin; made in house; host or cells: E. coli
Description: Test 1 Test on MMP-3 Inhibiting Activity
C-terminal truncated cDNA in which the cDNA encodes human prostromelysin, was subcloned (proMMP-3, cDNA sequence in Nature, 348, 699-704 (1990)), was expressed in E. coli and then, the expressed protein was purified in accordance with the method described in Biochemistry 30, 6476-6483 (1991). proMMP-3 activation was carried out by treating with 1 mM 4-aminophenyl mercuric acetate for 60 minutes at 37° C.
Enzyme activity test was conducted by the method of C. G. Knight (FEBS Lett., 296(3), 263-266 (1992)).
(§1) A mixture of activated MMP-3 (20 nM, 10 μl), buffer solution (70 μl, pH 7.5 solution containing 100 mM Tris-HCl solution, 10 mM calcium chloride solution, 100 mM sodium chloride solution and 0.05% Brij-35 solution), MOCAc-Pro-Leu-Gly-Leu-A2pr(DNP)-Ala-Arg-NH2 in 0.1% DMSO solution (100 μM, 10 μl) and a test compound in DMSO solution was incubated for 1.5 hours at 37° C. The mixture was put on a 96 well-plate (100 μl/well) and the plate was cultured at 37° C. The enzyme activity in the presence of the compound was measured based on fluorescence intensity (λex 320 nm, λem 405 nm), and IC50 was calculated.

MMP-9 = MMP-9 (Homo sapiens, UniProt P14780); test: Test 4 MMP-9 inhibiting activity test (biotin labeled gelatin); details: activated human MMP-9, biotin labeled gelatin; read-out: MMP-9 inhibition activity value
Description: Test 4 MMP-9 Inhibiting Activity Test
A mixture of buffer solution (190 μl; pH 7.5 solution containing 50 mM Tris-HCl solution, 0.5 m sodium chloride solution and 5 mM calcium chloride solution), human MMP-9 (10 μl) and trypsin solution (20 μl; trypsin 3 mg in activated buffer (5 ml)) was incubated at 37° C. for 10 minutes. Thereto was added aprotinine solution (20 μl; aprotinine (3 mg) in buffer (5 ml)) and the mixture was incubated at 37° C. for 10 minutes, followed by addition of buffer (2 ml). The mixture was preserved under cooling with ice until use.
A mixture of DMSO solution (2 μl) containing definite concentration of the compound, biotin labeled gelatin (188 μl) and activated MMP-9 solution (10 μl) was put on a 96 well-assay plate (protein nonabsorbance type), well agitated, and incubated at 37° C. for 1 hour. This solution was transferred to Streptavidin-coating plate, and agitated at 15° C. to 30° C. for 30 minutes. And then the solution was washed with TTC buffer solution (200 μl) three times. Thereto was added Streptavidin-POD (200 μl) and the mixture was agitated at 15° C. to 25° C. for 60 minutes, followed by washing with TTC buffer (200 μl) three times. Then, ABTS solution (200 μl) was added thereto and after standing at room temperature for 40 minutes, furuorescence intensity was measured at 405 nm and IC50 was calculated.
In case of the above test, DMSO (2 μl) was used as a control instead of a sample solution. In the case of a blank, DMSO (2 μl) instead of the sample solution and the solution (10 μl) prepared in the same manner as preparation of […] but without adding 1.2 Uhuman MMP-9, instead of activated MMP-9 solution (10 μl), were used.

MMP-13 = target: T3, MMP-13 (Homo sapiens, UniProt P45452); test: Test 2 Test on MMP-13 inhibition activity (fluorogenic peptide substrate); details: activated MMP-13, 37° C.
T3 construct: a fragment of 767 bp encoding original 84 amino acids of complete MMP-13 and encoding 164 amino acids; made in house; host or cells: E. coli BL21 (DE3), pET11a
Excerpt: Test 2 Test on MMP-13 Inhibition Activity
In order to subcloning C-terminal truncated cDNA in which the cDNA encodes procollagenase-3 (proMMP-13) (J. Biol. Chem., 269(24), 16766-16773 (1994)), two synthesized oligonucleotide primer fragments: • (5′-[…]-3′ and 5′-[…]-3′: In former the sequence for specific NdeI site (under line) including first methionine is included, and in latter terminal codon and BamHI site (under lined) are included.) were used with human cartilage cell cDNA library for PCR. Due to these primers and Pfu DNA polymelase (STRATAGENE) for PCR, there was obtained a fragment of 767 bp encoding original 84 amino acids of complete MMP-13 and encoding 164 amino acids. The said fragment was cut out with digestion by NdeI and BamHI, and the fragment was annealed to NdeI site and BamHI site of pET11a (STRATAGENE). The recombinant plasmid was transformed into E. coli BL21 (DE3) and the bacteria were cultivated. The crude cell extract was prepared according to the method of Biochemistry. The said extract was dialyzed with 20 mM Tris-HCl (pH 7.2)/5 mM CaCl2/0.02% NaN3 solution, treated with SP-sepharose HP column (1.6×10 cm, Amasham-Pharmacia biotec), and the eluting was carried out by liner gradient from 0 to 0.3 m of sodium chloride solution (50 ml) (partially purified proMMP-13 was eluted at about 0.2M.) The eluted fraction was dialyzed with 20 mM Tris-HCl (pH 7.9)/5 mM CaCl2/200 mM (NH4)2SO4/0.02% NaN3 solution, treated with phenylsepharose HP column (1.6×5 cm, Amersham-Pharmacia biotec), and the eluting was carried out by liner gradient from 0.2M to 0M sulfuric acid ammonium solution (purified proMMP-13 was eluted at about 50 mM.). The eluted fraction was concentrated by YM-5 ultrafilter membrane, and activated by 4-aminophenyl mercuric acetate. Activated MMP-13 was treated with gel filtration chromatography in accordance with the method of Biochemistry to be separated from propeptide. Inhibiting Test Method
Enzyme activity test was carried out by the method of G. Knight (FEBS Lett., 296(3), 263-266 (1992)).
as §1, with “MMP-13” for “MMP-3”, “Briji-35” for “Brij-35”, “μl/wel),” for “μl/well)”, “incubated” for “cultured”

T2 sequence (P08254 100-272 limits assumed): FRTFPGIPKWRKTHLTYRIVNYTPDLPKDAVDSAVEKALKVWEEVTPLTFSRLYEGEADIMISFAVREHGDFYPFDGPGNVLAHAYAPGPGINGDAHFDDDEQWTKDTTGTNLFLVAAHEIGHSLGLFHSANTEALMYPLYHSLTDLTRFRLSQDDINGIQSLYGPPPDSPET
Chain of MMP-9 (P14780 107-707 limits assumed): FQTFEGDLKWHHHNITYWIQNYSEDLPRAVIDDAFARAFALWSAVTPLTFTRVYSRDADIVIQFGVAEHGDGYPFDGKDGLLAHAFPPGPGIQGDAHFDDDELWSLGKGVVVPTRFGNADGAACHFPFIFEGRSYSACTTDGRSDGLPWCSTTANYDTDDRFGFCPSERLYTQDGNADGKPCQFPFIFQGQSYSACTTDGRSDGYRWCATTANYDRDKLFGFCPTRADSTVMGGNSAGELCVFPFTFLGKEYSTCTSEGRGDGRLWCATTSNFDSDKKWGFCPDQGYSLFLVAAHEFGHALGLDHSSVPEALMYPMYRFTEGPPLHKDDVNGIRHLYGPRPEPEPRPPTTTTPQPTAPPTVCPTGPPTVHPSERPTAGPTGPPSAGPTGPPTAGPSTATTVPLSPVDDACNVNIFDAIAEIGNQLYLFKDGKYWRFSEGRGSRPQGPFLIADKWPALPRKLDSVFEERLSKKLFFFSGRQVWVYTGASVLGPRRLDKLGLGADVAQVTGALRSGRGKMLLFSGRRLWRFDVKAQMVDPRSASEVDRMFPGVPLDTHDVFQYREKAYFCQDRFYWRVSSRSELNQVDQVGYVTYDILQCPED

CC(C)CN(CC(=O)NO)S(=O)(=O)c1ccc(Oc2ccc(S(C)(=O)=O)cc2)cc1 [Example 5, N′^1′-Hydroxy-N′^2′-isobutyl-N′^2′-({4-[4-(methylsulfonyl)phenoxy]phenyl}sulfonyl)glycinamide]
IC50 (MMP-14 (MT1-MMP)): 105 nM
IC50 (MMP-3): 15.4 nM
IC50 (MMP-9): > 100 nM
IC50 (MMP-13): 1.3 nM
